Patent US9370520B2, “Macrocyclic LRRK2 kinase inhibitors” (IPSEN PHARMA S.A.S., priority 2011, dated 2016)

Key:
[1] = target: T1, truncated LRRK2-G2019S (GST tagged LRRK2-G2019S of amino acids 970-2527) (Homo sapiens, UniProt Q5S007, G2019S); test: LRRKtide 32P-ATP peptide kinase assay (Protocol 1), truncated LRRK2-G2019S; type: biochemical; conditions: 10 μM ATP, 200 μM lrrktide
T1 construct: GST tagged LRRK2-G2019S of amino acids 970-2527; GST
Experimental: (§1) The inhibition of LRRK2 and LRRK1 kinase was assessed using LRRK2 and LRRK1 recombinant protein in an in vitro peptide-based kinase assay.
(§2) LRRK2 protein is prepared as described in Daniëls et al. ((2011) J Neurochem 116, 304-315.). HEK293T cells are transfected with pCHMWS-3xflag-LRRK2 plasmid using polyethyleneimine and lysed after 48-72 hours in lysis buffer (Tris 20 mM pH 7.5, NaCl 150 mM, EDTA 1 mM, Triton 1%, Glycerol 10%, protease inhibitor cocktail). Lysates are cleared by centrifugation at 20,000 g for 10 minutes and incubated with normal mouse IgGs bound to agarose beads to remove proteins aspecifically binding to agarose or mouse IgGs. After removal of the IgG bead slurry, lysates are incubated for 3 to 18 hours with flagM2 bound to agarose beads. Beads are washed 4 times with wash buffer (Tris 25 mM pH 7.5, NaCl 400 mM, Triton 1%) and rinsed in kinase buffer (Tris-HCl 25 mM pH 7.5, 10 mM MgCl2, 2 mM dithiothreitol (DTT), 0.02% triton, 5 mM beta-glycerophosphate, 0.1 mM Na3VO4). Proteins are eluted in 5 volumes of kinase buffer containing 100 μg/ml 3xflag peptide. For assays using purified protein bound to affinity resin, affinity beads are resuspended in an equal volume of kinase buffer unless otherwise indicated. Purity and concentration are assessed by SDS-PAGE (3-8% tris-acetate SDS gel) and Coomassie Brilliant Blue staining or silver staining. Alternatively, a truncated LRRK2 enzyme (GST tagged LRRK2 of amino acids 970-2527) and a truncated LRRK2-G2019S (GST tagged LRRK2-G2019S of amino acids 970-2527) are used.
(§3) For Irrktide phosphorylation, recombinant LRRK2 is incubated with 6 μCi of 32P-ATP (3000 Ci/mmol), 200 μM Irrktide, 10 μM ATP and compound or solvent per 40 μl reaction for 30 minutes at 30° C. Compounds are tested at concentrations ranging from […]; the final amount of DMSO in the kinase reaction is 1%. Reactions are stopped and spotted to P81 phosphocellulose paper and washed 4×10 minutes in 75 mM phosphoric acid. Lrrktide phosphorylation levels are measured via autoradiography. Kinase assays are performed for each condition in triplicate.
(§4) LRRKtide phosphorylation levels are plotted vs. the log of the compound concentration and inhibition curves are fitted from which IC50 values are derived.

[2] = target: T2, truncated LRRK2 (GST tagged LRRK2 of amino acids 970-2527) (Homo sapiens, UniProt Q5S007); test: LRRKtide 32P-ATP peptide kinase assay (Protocol 1), truncated LRRK2; type: biochemical; conditions: 10 μM ATP, 200 μM lrrktide
T2 construct: GST tagged LRRK2 of amino acids 970-2527; GST
T2 sequence (Q5S007 970-2527): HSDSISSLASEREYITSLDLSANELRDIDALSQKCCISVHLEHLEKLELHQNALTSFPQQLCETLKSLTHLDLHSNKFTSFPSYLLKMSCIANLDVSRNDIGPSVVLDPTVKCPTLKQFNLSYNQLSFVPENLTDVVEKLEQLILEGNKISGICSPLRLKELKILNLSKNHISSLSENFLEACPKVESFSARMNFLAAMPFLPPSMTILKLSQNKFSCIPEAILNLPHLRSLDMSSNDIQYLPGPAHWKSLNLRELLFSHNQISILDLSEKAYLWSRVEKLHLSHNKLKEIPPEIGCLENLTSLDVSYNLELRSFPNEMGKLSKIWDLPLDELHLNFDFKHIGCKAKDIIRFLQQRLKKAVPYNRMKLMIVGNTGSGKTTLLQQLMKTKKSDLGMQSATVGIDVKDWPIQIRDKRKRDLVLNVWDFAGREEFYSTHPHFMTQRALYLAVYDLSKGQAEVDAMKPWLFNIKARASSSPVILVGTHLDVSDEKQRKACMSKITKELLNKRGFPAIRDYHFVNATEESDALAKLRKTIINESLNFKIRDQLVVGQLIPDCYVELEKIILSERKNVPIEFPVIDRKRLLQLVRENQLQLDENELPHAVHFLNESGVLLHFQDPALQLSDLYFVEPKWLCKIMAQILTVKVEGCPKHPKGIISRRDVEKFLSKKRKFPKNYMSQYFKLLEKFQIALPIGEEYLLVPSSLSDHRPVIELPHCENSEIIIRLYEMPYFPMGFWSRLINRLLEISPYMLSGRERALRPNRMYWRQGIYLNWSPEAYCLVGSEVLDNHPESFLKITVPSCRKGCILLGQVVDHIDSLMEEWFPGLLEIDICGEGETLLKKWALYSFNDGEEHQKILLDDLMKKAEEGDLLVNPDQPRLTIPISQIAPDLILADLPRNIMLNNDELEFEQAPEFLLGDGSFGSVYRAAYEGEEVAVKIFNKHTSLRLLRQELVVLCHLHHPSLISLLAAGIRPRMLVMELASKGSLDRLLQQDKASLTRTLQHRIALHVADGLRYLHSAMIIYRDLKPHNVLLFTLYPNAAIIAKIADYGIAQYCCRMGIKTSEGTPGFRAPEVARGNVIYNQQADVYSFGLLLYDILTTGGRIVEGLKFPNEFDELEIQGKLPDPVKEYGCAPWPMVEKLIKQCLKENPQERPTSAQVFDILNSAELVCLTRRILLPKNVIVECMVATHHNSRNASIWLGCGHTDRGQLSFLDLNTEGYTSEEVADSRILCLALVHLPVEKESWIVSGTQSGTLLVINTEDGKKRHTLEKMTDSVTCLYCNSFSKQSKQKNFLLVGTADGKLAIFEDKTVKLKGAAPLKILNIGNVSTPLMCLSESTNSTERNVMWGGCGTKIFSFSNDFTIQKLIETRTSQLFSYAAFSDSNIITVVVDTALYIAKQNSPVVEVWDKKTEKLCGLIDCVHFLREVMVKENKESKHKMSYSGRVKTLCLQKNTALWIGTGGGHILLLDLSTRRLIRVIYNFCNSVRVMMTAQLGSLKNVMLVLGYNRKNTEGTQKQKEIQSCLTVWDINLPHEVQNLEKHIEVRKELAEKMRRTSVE
Experimental: as §1, §2, §3, §4

full-length LRRK2 = target: T3, full-length LRRK2 (Homo sapiens, UniProt Q5S007); test: LRRKtide 32P-ATP peptide kinase assay (Protocol 1), full-length LRRK2; type: biochemical; conditions: 10 μM ATP, 200 μM lrrktide
T3 construct: full-length; made in house; host or cells: HEK293T
T3 sequence (Q5S007 whole entry): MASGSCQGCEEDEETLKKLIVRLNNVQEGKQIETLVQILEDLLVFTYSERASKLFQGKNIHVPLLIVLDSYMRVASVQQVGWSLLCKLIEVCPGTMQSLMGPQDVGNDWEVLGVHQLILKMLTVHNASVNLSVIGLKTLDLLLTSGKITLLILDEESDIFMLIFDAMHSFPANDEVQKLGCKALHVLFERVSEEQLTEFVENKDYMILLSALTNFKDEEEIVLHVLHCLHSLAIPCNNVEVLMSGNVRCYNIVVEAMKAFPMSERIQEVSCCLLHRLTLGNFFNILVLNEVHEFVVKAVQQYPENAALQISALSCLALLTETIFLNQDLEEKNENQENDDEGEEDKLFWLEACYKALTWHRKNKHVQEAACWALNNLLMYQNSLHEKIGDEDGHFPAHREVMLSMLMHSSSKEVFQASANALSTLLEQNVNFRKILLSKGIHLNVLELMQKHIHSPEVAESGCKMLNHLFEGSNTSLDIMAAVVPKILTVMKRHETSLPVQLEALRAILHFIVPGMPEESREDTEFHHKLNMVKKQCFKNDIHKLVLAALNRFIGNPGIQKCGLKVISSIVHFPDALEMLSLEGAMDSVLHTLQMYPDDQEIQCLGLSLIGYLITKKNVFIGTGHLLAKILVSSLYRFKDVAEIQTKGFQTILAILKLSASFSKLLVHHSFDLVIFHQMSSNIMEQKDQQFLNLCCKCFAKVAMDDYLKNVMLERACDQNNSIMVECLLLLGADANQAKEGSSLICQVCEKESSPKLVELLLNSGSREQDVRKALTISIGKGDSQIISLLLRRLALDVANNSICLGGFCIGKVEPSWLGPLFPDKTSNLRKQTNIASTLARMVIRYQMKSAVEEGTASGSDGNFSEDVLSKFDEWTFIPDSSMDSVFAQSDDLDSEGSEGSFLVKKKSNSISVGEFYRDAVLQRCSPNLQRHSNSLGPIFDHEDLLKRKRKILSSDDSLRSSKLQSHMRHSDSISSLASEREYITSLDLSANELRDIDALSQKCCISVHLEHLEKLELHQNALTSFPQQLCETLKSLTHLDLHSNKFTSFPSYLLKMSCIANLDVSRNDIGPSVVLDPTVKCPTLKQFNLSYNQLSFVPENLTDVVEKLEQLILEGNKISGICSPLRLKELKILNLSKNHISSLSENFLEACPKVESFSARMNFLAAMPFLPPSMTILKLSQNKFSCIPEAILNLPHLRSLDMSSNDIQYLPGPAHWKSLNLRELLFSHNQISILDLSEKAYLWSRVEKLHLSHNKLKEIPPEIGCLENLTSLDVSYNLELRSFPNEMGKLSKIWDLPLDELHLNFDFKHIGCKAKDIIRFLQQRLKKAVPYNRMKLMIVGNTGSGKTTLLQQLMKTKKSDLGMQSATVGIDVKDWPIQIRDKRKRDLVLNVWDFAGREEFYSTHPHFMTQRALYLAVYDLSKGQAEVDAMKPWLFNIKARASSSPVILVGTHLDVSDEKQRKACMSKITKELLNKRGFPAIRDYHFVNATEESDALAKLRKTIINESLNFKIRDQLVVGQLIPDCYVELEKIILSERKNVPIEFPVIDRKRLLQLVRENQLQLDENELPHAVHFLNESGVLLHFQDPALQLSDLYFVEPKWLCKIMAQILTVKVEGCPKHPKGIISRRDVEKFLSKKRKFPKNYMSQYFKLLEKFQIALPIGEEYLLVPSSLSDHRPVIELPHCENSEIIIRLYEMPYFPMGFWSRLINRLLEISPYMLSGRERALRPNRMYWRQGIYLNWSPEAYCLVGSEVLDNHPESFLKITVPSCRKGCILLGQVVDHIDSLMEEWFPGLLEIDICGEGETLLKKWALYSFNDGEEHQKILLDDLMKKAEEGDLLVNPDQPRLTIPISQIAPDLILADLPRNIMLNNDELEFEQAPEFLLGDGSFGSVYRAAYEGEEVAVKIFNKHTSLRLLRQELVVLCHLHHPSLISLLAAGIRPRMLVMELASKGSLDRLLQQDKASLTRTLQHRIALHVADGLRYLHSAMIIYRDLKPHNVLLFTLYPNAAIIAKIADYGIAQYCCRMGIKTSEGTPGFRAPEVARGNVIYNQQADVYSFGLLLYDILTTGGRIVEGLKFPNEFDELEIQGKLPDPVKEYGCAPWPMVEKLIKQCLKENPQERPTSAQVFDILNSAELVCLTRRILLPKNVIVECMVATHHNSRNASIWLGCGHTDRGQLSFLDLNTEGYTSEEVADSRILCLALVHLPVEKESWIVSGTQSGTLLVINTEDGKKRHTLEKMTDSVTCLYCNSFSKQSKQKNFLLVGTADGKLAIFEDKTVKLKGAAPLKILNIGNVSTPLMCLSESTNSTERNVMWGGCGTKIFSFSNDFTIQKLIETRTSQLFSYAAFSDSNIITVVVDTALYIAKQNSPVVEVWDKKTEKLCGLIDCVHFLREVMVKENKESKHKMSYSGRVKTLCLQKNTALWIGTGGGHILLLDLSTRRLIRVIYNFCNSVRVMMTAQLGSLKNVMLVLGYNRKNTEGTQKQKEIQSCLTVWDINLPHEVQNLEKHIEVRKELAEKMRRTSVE
Experimental: as §1, §2
as §3, with “triplicate. […]” for “triplicate.”

T1 sequence (Q5S007 970-2527 G2019S): as the sequence (Q5S007 970-2527) above, with G1050S counted along it

Structure (SMILES) | melting point | IC50 [1] | IC50 [2] | IC50 (full-length LRRK2)
CN1CCNc2ccn3ncc(c3n2)-c2cccc(c2)OCC1=O [Example 5] | > 300 °C | 100 to 1000 nM | 100 to 1000 nM | 100 to 1000 nM
O=C1CCCOc2cccc(c2)-c2cnn3ccc(nc23)NCCN1 [Example 2] | > 300 °C | 100 to 1000 nM | 100 to 1000 nM | < 100 nM
